In general, GI50 refers to the concentration that inhibits growth by half. A higher GI50 goes with less potent growth inhibition. One may read the logP as the decadic logarithm of the partition coefficient of the neutral form, usually between octanol and water. A low value points to a more hydrophilic compound. As usually defined, the pKa is the pH at which an ionisable group is half protonated. For orientation: logD means lipophilicity at a set pH, counting ionised and neutral species. A higher logD goes with a more lipophilic compound. As a reminder, the kinetic solubility is the concentration staying in solution when a stock, usually in DMSO, is diluted into the medium.

The record followed here is ChEMBL document CHEMBL2021885, “Triphenylbutanamines: kinesin spindle protein inhibitors with in vivo antitumor activity” (J Med Chem, 2012).

A short description of data set [1]: Antiproliferative activity against human hTERT-HME1 cells after 72 hrs by Alamar blue assay. It is filed as cell-based.
The nature of data set [2]: Lipophilicity, Log P of the compound. It counts as physicochemical. Conditions: octanol/water.
A short description of data set [3]: Dissociation constant, pKa of the compound. It counts as physicochemical.
A short description of data set [4]: Distribution coefficient, log D of the compound at pH 7.4. It counts as physicochemical. Conditions: octanol/water.
For another data set, the system named is Liver microsomes. Put plainly: Intrinsic clearance in human liver microsomes assessed as per mg of protein. It counts as ADME, Microsome.
In a further data set the test system is Liver. Put plainly: Intrinsic clearance in mouse liver microsomes assessed as per mg of protein. It is filed as ADME, Microsome. On the technique in general: Liver microsomes are a subcellular fraction often used to study metabolism.
Data set [5] can be described thus: Intrinsic clearance in human hepatocytes assessed as per million cells. It counts as ADME, cell-based, Hepatocyte.
In the next data set the test system is K562. Put plainly: cells. Conditions: Homo sapiens, K562, 72 h.
The nature of data set [6]: Turbidimetric solubility of the compound at pH 2. It counts as physicochemical. Conditions: buffer.
Data set [7] in a line: Turbidimetric solubility of the compound at pH 6. It counts as physicochemical. Conditions: buffer.
Data set [8] can be described thus: Turbidimetric solubility of the compound at pH 7.4. It counts as physicochemical. Particulars: buffer.

Values after ≈ are worked out from the molar mass of the structure shown.

Description for K562: Antiproliferative activity against human K562 cells after 72 hrs by Alamar blue assay

`Cc1ccc(C(=O)N(CCCN)[C@@H](c2nc3cc(Cl)ccc3c(=O)n2Cc2ccccc2)C(C)C)cc1` [ISPINESIB] displayed a GI50 at 72 h in [1] of 32 nM. This molecule gave a logP in data set [2] of 4.75. Further, the pKa in data set [3] amounted to 9.34. The molecule also displayed a logD in data set [4] of 2.66. Also, the values for the CLH entry (in the data set on Liver microsomes; with Liver; in data set [5]) were “Stable”, “Stable” and 0.75 µL/min, respectively. Besides, the GI50 in the data set on K562 was 71 nM.
In [1], `Cc1cccc(C(CCCN)(c2ccccc2)c2ccccc2)c1` came in with a GI50 at 72 h of 150 nM. In addition, the kinetic solubility in data set [6], in data set [7] and in [8] was above 100 µM in each case. In data set [2], this molecule yielded a logP of 4.69. In addition, the pKa in data set [3] amounted to 10.1. The logD in data set [4] was 2.33. Also, the values for the CLH entry (in the data set on Liver microsomes; in [5]) were “Stable” and 3.93 µL/min, respectively.
Consider `CCCc1cccc(C(SCCN)(c2ccccc2)c2ccccc2)c1`, for which the GI50 in the data set with K562 is 1760 nM. The same molecule registered a kinetic solubility in the data set “physchem” of 3.75 µM (≈ 1.36 µg/mL).
